Columns and labels:
[1] = biological target: T1, Ceramide glucosyltransferase (Homo sapiens, UniProt Q16739); assay: Inhibition of Glucosylceramide synthase (unknown origin) using C6-ceramide and UDP-glucose as substrate preincubated for 30 mins followed by substrate addition and measured after 2 hrs by UDP-Glo luminometer analysis
T1 sequence (Q16739 whole entry): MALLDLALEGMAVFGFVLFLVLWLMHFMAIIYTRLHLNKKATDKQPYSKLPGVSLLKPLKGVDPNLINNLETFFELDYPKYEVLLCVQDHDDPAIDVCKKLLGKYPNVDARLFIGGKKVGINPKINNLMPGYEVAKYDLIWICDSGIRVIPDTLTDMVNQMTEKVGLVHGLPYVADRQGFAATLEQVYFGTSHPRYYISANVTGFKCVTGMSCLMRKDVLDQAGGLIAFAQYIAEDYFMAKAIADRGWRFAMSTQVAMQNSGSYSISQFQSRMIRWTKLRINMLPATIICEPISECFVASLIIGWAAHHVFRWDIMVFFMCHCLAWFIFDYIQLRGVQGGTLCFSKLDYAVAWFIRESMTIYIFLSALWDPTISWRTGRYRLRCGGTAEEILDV

rat P-gp [2] = assay: Substrate activity at rat P-gp assessed as efflux ratio at 1 uM; type: ADME; conditions: not told
rat P-gp [3] = assay: Substrate activity at rat P-gp assessed as apparent permeability at 1 uM; type: ADME; conditions: not told
[4] = Lipophilicity, logD of compound by HPLC method; type: physicochemical
[5] = biological target: T1, Ceramide glucosyltransferase; assay: Inhibition of GCS in human fibroblast; type: cell-based
mouse BCRP (ABCG2) [6] = biological target: T2, mouse BCRP (ABCG2) (Mus musculus, UniProt Q7TMS5); assay: Substrate activity at mouse BCRP assessed as efflux ratio at 1 uM; type: ADME; conditions: not told
T2 sequence (Q7TMS5 whole entry): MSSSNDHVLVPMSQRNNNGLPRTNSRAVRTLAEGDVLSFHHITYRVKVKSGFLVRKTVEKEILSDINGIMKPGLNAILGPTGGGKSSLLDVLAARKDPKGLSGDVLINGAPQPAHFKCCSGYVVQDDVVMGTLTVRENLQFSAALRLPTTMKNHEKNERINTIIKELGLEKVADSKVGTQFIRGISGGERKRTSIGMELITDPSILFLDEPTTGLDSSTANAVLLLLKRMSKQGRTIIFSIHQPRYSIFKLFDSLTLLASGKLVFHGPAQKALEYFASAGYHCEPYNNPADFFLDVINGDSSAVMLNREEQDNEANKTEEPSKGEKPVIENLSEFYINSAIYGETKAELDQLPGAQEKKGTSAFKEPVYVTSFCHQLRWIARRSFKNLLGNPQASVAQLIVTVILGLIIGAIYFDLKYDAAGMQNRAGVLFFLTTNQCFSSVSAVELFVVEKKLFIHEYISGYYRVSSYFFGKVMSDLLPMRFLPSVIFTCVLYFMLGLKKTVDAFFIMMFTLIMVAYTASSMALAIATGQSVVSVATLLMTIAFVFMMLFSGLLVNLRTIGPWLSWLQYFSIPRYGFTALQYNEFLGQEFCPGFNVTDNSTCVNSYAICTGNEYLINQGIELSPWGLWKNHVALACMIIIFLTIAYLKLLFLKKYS

mouse BCRP (ABCG2) [7] = biological target: T2, mouse BCRP (ABCG2); assay: Substrate activity at mouse BCRP assessed as apparent permeability at 1 uM; type: ADME; conditions: not told
[8] = biological target: T3, 5-hydroxytryptamine receptor 3A (Homo sapiens, UniProt P46098); assay: Antagonist activity at human 5HT3A expressed in HEK293 cells incubated for 1 hr by FLIPR assay; type: cell-based
T3 sequence (P46098 whole entry): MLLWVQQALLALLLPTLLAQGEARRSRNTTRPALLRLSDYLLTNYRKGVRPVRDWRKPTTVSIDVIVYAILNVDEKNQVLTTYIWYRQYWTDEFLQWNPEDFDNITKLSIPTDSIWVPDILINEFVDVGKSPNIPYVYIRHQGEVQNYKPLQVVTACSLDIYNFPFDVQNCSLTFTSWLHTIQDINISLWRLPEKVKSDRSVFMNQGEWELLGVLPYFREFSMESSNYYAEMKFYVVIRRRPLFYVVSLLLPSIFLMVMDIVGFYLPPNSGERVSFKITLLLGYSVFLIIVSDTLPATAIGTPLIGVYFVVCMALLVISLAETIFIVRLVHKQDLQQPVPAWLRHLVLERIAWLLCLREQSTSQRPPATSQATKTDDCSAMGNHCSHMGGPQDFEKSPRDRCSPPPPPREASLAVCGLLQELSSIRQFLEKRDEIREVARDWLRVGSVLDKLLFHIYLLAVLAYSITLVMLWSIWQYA

Homo sapiens = organism: Homo sapiens; assay: Selectivity ratio of IC50 for human 5HT3A to IC50 for GCS (unknown origin)
[9] = Intrinsic clearance in rat at 5 to 10 mg/kg, po or 0.05 to 2 mg/kg, iv; type: ADME, organism-based; conditions: in vivo, dose 5-10 mg/kg
[10] = Mean residence time in rat at 5 to 10 mg/kg, po or 0.05 to 2 mg/kg, iv; type: ADME, organism-based; conditions: in vivo, dose 5-10 mg/kg
[11] = Bioavailability in rat at 5 to 10 mg/kg, po or 0.05 to 2 mg/kg, iv; type: ADME, organism-based; conditions: in vivo, dose 5-10 mg/kg

IC50 [1]	Structure (SMILES)	efflux ratio at 1 µM (rat P-gp [2])	Papp at 1 µM (rat P-gp [3])	logD [4]	IC50 [5]	efflux ratio at 1 µM (mouse BCRP (ABCG2) [6])	Papp at 1 µM (mouse BCRP (ABCG2) [7])	IC50 [8]	Ratio IC50 (Homo sapiens)	CL [9]	MRT [10]	bioavailability [11]
690 nM	COc1ccc(-n2nc(C(=O)N3CCCNCC3)c3c2CCOC3)cc1	–	–	–	–	–	–	–	–	–	–	–
> 28000 nM	COc1ccc(-n2nc(C(=O)N3CC(c4cnc(C)n4C)C3)c3c2CCOC3)cc1	–	–	–	–	–	–	–	–	–	–	–
–	COc1ccc(-n2nc(C(=O)N3CCN4CCC3CC4)c3c2CCOC3)cc1	–	31 ×10⁻⁶ cm/s	–	–	–	–	–	–	–	–	–
–	O=C(N1CCN2CCC1CC2)n1nc(-n2cc(C(F)(F)F)cn2)c2c1CCOC2	2.7	–	–	32 nM	1.2	42 ×10⁻⁶ cm/s	7470 nM	2070	39 mL/min/kg	3.2 h	–
–	O=C(N1CCN2CCC1CC2)n1nc(-n2cc(C(F)(F)F)cn2)c2c1CCC2	1.7	–	–	32 nM	0.8	24 ×10⁻⁶ cm/s	2190 nM	5480	89 mL/min/kg	5.9 h	25%
–	CC1(C)Cc2c(c(-c3ccc(F)cc3)nn2C(=O)N2CCN3CCC2CC3)CO1	8.5	–	–	32 nM	0.9	31 ×10⁻⁶ cm/s	4210 nM	470	180 mL/min/kg	2.6 h	–
1000 nM	COc1ccc(-n2nc(C(=O)N3CCCN(C)CC3)c3c2CCOC3)cc1	5	–	–	180 nM	–	–	–	–	–	–	–
–	O=C(N1CCN2CCC1CC2)n1nc(-n2cc(C(F)(F)F)cn2)c2c1[C@H]1C[C@H]1C2	2.2	–	–	33 nM	0.8	23 ×10⁻⁶ cm/s	2470 nM	25000	85 mL/min/kg	8.2 h	67%
–	O=C(N1CCN2CCC1CC2)n1nc(-c2ccc(C(F)(F)F)cc2)c2c1COCC2	3.2	–	–	21 nM	1.2	33 ×10⁻⁶ cm/s	1590 nM	647	610 mL/min/kg	3.3 h	–
–	COc1ccc(-n2nc(C(=O)N3CCNCC(CO)C3)c3c2CCOC3)cc1 (racemic)	–	6 ×10⁻⁶ cm/s	–	–	–	–	–	–	–	–	–
–	O=C(N1CCN2CCC1CC2)n1nc(-n2cc(Cl)cn2)c2c1COCC2	4.4	–	–	37 nM	1.4	32 ×10⁻⁶ cm/s	585 nM	96	120 mL/min/kg	1.1 h	–
–	COc1ccc(-c2nn(C(=O)N3CCN4CCC3CC4)c3c2CCOC3)cc1	4.4	–	–	35 nM	1.4	32 ×10⁻⁶ cm/s	338 nM	164	3510 mL/min/kg	0.7 h	–
7400 nM	CCN1CCCN(C(=O)c2nn(-c3ccc(OC)cc3)c3c2COCC3)CC1	–	–	–	–	–	–	–	–	–	–	–
12500 nM	COc1ccc(-n2nc(C(=O)N3CCN(C)CC(F)C3)c3c2CCOC3)cc1 (racemic)	–	–	–	–	–	–	–	–	–	–	–

Structure (SMILES)	IC50 [1]	efflux ratio at 1 µM (rat P-gp [2])	Papp at 1 µM (rat P-gp [3])	logD [4]	IC50 [5]	efflux ratio at 1 µM (mouse BCRP (ABCG2) [6])	Papp at 1 µM (mouse BCRP (ABCG2) [7])	IC50 [8]	Ratio IC50 (Homo sapiens)	CL [9]	MRT [10]	bioavailability [11]
O=C(N1CCN2CCC1CC2)n1nc(-c2ccc(F)c(Cl)c2)c2c1COCC2	1 nM	1.7	24 ×10⁻⁶ cm/s	2.8	–	–	–	–	–	–	–	–
O=C(c1nn(-c2ccc(F)c(Cl)c2)c2c1COCC2)N1CCN2CCC1CC2	6 nM	19	32 ×10⁻⁶ cm/s	1.9	–	–	–	–	–	–	–	–
